Series [1] deals with P. falciparum, strain NF54, erythrocytic stages. Briefly: In vitro growth inhibition assay of Plasmodium falciparum NF54 ([3H]-hypoxanthine incorporation). The series is classed as cell-based. The conditions noted are these: for IC50: Plasmodium falciparum, strain NF54, erythrocytic stages, read-out: P. falc. IC50; for SI (IC50 in L6 cells/IC50 P. falciparum): ratio IC50 L6 / IC50 P. falciparum NF54. As for the experimental part: In vitro activity against erythrocytic stages of P. falciparum was determined by a modified [^3H]-hypoxanthine incorporation assay using the drug-sensitive NF54 strain and the standard drug, chloroquine (Sigma C6628). Briefly, parasite cultures incubated in RPMI 1640 medium with 5% AlbuMAX^TM (without hypoxanthine) were exposed to serial drug dilutions in microtiter plates. After 48 h of incubation at 37 °C in a reduced oxygen atmosphere, 0.5 μCi [^3H]-hypoxanthine was added to each well of the plate. Cultures were incubated for a further 24 h before they were harvested onto glass-fiber filters and washed with distilled water. The radioactivity was counted using a Betaplate^TM liquid scintillation counter (Wallac, Zurich). The results were recorded as counts per minute (CPM) per well at each drug concentration and expressed as a percentage of the untreated controls. IC50 values were calculated from the sigmoidal inhibition curves using Microsoft Excel.

Series [2] has as its system T. brucei rhodesiense, strain STIB900 trypomastigote forms. Kind of series: In vitro growth inhibition assay of Trypanosoma brucei rhodesiense (Alamar Blue). The class given is cell-based. The conditions noted are these: for IC50: Trypanosoma brucei, 72 h, strain STIB900, trypomastigote forms, read-out: T.b.rhod. IC50; for SI (IC50 in L6 cells/IC50 T. b. rhodesiense): ratio IC50 L6 / IC50 T. b. rhodesiense STIB900. The procedure:
Trypanosoma brucei rhodesiense, STIB 900 strain, and the standard drug, melarsoprol, were used for the assay. Minimum Essential Medium (50 μL) supplemented with 25 mM HEPES, 1g/L additional glucose, 1% MEM non-essential amino acids (100×), 0.2 mM 2-mercaptoethanol, 1 mM Na-pyruvate, and 15% heat-inactivated horse serum was added to each well of a 96-well microtiter plate. Serial drug dilutions of 11 three-fold dilution steps covering a range from 100 to 0.002 μg/mL were prepared. Then, 4 × 10^3 bloodstream forms of T. b. rhodesiense (STIB 900) in 50 μL were added to each well and the plate was incubated at 37 °C under a 5% CO2 atmosphere for 72 h. 10 μL Alamar Blue (resazurin, 12.5 mg in 100 mL double-distilled water) was then added to each well and incubation continued for a further 2–4 h. Then, the plates were read with a Spectramax Gemini XS microplate fluorometer (Molecular Devices Cooperation, Sunnyvale, CA, USA) using an excitation wavelength of 536 nm and an emission wavelength of 588 nm. The IC50 values were calculated from the sigmoidal inhibition curves using the microplate reader software, Softmax Pro (Molecular Devices Cooperation, Sunnyvale, CA, USA). Melarsoprol was used as the control.
(The colour change of resazurin is a common sign of viable cells or microbes.)

Series [3] concerns L6 cells rat skeletal myoblasts. Briefly: Cytotoxicity against L6 cells (Alamar Blue). The series is classed as cell-based. Particulars: L6 rat skeletal myoblasts, 72 h; read-out: Cyt. L6 IC50. The procedure: Assays were performed in 96-well microtiter plates, each well containing 100 μL of RPMI 1640 medium supplemented with 1% L-glutamine (200 mM) and 10% foetal bovine serum, and 4000 L6 cells (a […] cell line derived from rat skeletal myoblasts). Serial drug dilutions of 11 threefold dilution steps covering a range from 100 to 0.002 μg/mL were prepared. After 72 h of incubation, the plates were inspected under an inverted microscope to assure growth of the controls and sterile conditions. 10 μL of Alamar Blue solution was then added to each well and the plates incubated for another 2 h. Then, the plates were read with a Spectramax Gemini XS microplate fluorometer (Molecular Devices Cooperation, Sunnyvale, CA, USA) using an excitation wavelength of 536 nm and an emission wavelength of 588 nm. The IC50 values were calculated by linear regression from the sigmoidal dose inhibition curves using the microplate reader software, Softmax Pro (Molecular Devices Cooperation, Sunnyvale, CA, USA). Podophyllotoxin (Sigma P4405) was used as the control.

The next series has as its system CCRF-CEM leukemia cells. Kind of series: XTT viability assay, CCRF-CEM. The series is classed as cell-based. Particulars: Homo sapiens, 72 h, read-out: metabolic active cells in % of control. The procedure: (§1) Human CCRF-CEM leukemia and MDA-MB-231 breast cancer cells lines were kept in RPMI1640 medium (Gibco®, ThermoFisher Scientific Inc., New York, NY, USA), supplemented with 2 mM L-glutamine (Gibco®), 10% heat-inactivated foetal bovine serum (FBS, Gibco®), 100 units/mL Penicillin (PAA), and 100 µg/mL Streptomycin (Gibco®) (1% Pen/Strep). HCT-116 and U251 cells were cultured in high-glucose Dulbecco’s Modified Eagle Medium (DMEM, Gibco®) containing 2 mM L-glutamine, 10% FBS, and 1% Pen/Strep. MRC-5 cells were grown in Minimum Essential Medium (MEM, Gibco®) supplemented with 2 mM L-glutamine, 10% FBS, and 1% Pen/Strep. All cells were kept in a humidified 5% CO2 atmosphere at 37 °C and passaged at 90% confluence.
(§2) A Cell Proliferation Kit II (XTT) was purchased from Sigma-Aldrich and performed as described previously and in accordance with the manufacturer’s protocol. In brief, adherent cell lines were seeded at a density of 50,000 cells/mL or 100,000 cells/mL (MRC-5) in 96 well plates (100 µL, flat bottom) and grown for 24 h before test compounds were added. Suspension cells (CCRF-CEM) were seeded at 100,000 cells/mL and test compounds were added immediately. After 72 h, XTT solution was added for another 90 min or 4 h (CCRF-CEM cells) and absorbance was measured at 490 nm with a reference wave length of 650 nm (Hidex Sense Microplate Reader 425-301, Hidex, Turku, Finland). Results are expressed as a percentage of the vehicle-treated (0.5% DMSO) control cells. Vinblastine served as the positive control (0.01 µg/mL).

The test system of series [4] is MDA-MB-231 breast cancer cells. Briefly: XTT viability assay, MDA-MB-231. The series is classed as cell-based. Particulars: Homo sapiens, 72 h, read-out: metabolic active cells in % of control; for viability at 5 µg/mL: MDA-MB-231, 5 µg/mL; for viability at 50 µg/mL: MDA-MB-231, 50 µg/mL. As for the experimental part: as §1, §2
On the technique in general: Tetrazolium dyes change colour on reduction, which living cells bring about.

In series [5] the test system is HCT-116 colon cancer cells. Kind of series: XTT viability assay, HCT-116. The class given is cell-based. The conditions noted are these: Homo sapiens, 72 h, read-out: metabolic active cells in % of control; for viability at 5 µg/mL: HCT 116, 5 µg/mL; for viability at 50 µg/mL: HCT 116, 50 µg/mL. As for the experimental part: as §1, §2
The next series deals with U251 glioblastoma cells. Briefly: XTT viability assay, U251. The class given is cell-based. The conditions noted are these: Homo sapiens, U-251, 72 h, read-out: metabolic active cells in % of control; for viability at 5 µg/mL: U251, 5 µg/mL; for viability at 50 µg/mL: U251, 50 µg/mL. The procedure: as §1, §2
Series [6] deals with MRC-5 non-tumorigenic lung fibroblasts. Kind of series: XTT viability assay, MRC-5. The series is classed as cell-based, human. The conditions noted are these: Homo sapiens, MRC5, 72 h, read-out: metabolic active cells in % of control; for viability at 5 µg/mL: MRC-5, 5 µg/mL; for viability at 50 µg/mL: MRC-5, 50 µg/mL. The procedure: as §1, §2

2 compounds from PMC6278284, “Synthesis of Jacaranone-Derived Nitrogenous Cyclohexadienones and Their Antiproliferative and Antiprotozoal Activities” (Molecules, 2018) can be followed below.

By IC50 is commonly meant the concentration at which inhibition is half-maximal. The melting point is the temperature of the solid-liquid transition. As to `O=C1C=CC(O)(CCN2C(=O)C3CCCCC3C2O)C=C1` (centres unmarked) [Compound 15, 3-Hydroxy-N-[2-(1-hydroxy-4-oxocyclohexa-2,5-dien-1-yl)ethyl]octahydroisoindole-1-one], the melting point is 127 to 128 °C. Further, in series [1], the IC50 turned out to be 6.18 µM and the “SI (IC50 in L6 cells/IC50 P. falciparum)” value was 2.0. Further, in series [2], the IC50 came to 1.52 µM and the “SI (IC50 in L6 cells/IC50 T. b. rhodesiense)” value is 8.3. In addition, the IC50 in series [3] was 12.6 µM. Moreover, in the series on CCRF-CEM leukemia cells, the viability at 5 µg/mL came out at 42.4% and the viability at 50 µg/mL was 0.57%. Besides, in series [4], the viability at 5 µg/mL turned out to be 105% and the viability at 50 µg/mL worked out at 6.05%. Moreover, in [5], the viability at 5 µg/mL came out at 111% and the viability at 50 µg/mL was found to be 1.44%. In the series on U251 glioblastoma cells, the viability at 5 µg/mL was 97.6% and the viability at 50 µg/mL is 2.24%. Also, in series [6], the viability at 5 µg/mL came to 135% and the viability at 50 µg/mL was found to be 4.47%.

`O=C1C=CC(O)(CCN2C(=O)c3ccccc3C2=O)C=C1` [Compound 13a, N-[2-(1-Hydroxy-4-oxocyclohexa-2,5-dien-1-yl)ethyl]phthalimide] yielded a melting point of 161 to 162 °C. Besides, in [1], the half-maximal inhibitory concentration (IC50) is 3.78 µM and the “SI (IC50 in L6 cells/IC50 P. falciparum)” value came out at 1.3. In series [2], the IC50 was 1.58 µM and the “SI (IC50 in L6 cells/IC50 T. b. rhodesiense)” value came to 3.2. The IC50 in [3] stood at 5.08 µM. Besides, in the series on CCRF-CEM leukemia cells, the viability at 5 µg/mL was found to be 4.42% and the viability at 50 µg/mL is 1.15%. Further, in [4], the viability at 5 µg/mL came to 37.8% and the viability at 50 µg/mL worked out at 17.4%. Further, in series [5], the viability at 5 µg/mL amounted to 55.4% and the viability at 50 µg/mL was 1.76%. For the same compound, in the series with U251 glioblastoma cells, the viability at 5 µg/mL came out at 90.7% and the viability at 50 µg/mL came to 3.21%. Also, in series [6], the viability at 5 µg/mL came out at 43.7% and the viability at 50 µg/mL is 1.93%.
